Measured values from BindingDB's records for doi:10.1016/j.bmcl.2010.12.109 (Ono Pharmaceutical, 2011).
Structures can show the parent of a compound that is named as a salt.

Test: Antagonist activity at human CCR5 expressed in HOS cells assessed as inhibition of cell fusion with HIV gp120 expressing HEK293 cells by LTR luciferase assay

SMILES | IC50
CCCCN1C(=O)[C@@H]([C@H](O)C(C)C)NC(=O)C12CCN(Cc1ccc(Oc3ccccc3)cc1)CC2 [(R)-1-butyl-3-((R)-1-hydroxy-2-methyl-propyl)-9-(4-phenoxy-benzyl)-1,4,9-triaza-spiro[5.5]undecane-2,5-dione hydrochloride] | 229 nM
CCCCN1C(=O)C(CC(C)C)NC(=O)C12CCN(Cc1ccc(Oc3ccccc3)cc1)CC2 (stereo not drawn) [rac-1-Butyl-3-isobutyl-9-(4-phenoxybenzyl)-1,4,9-triazaspiro[5.5]undecane-2,5-dione hydrochloride] | 851 nM
